Data: patent publication US20260022098A1, “BULLEYACONITINE A DERIVATIVE WITH ANALGESIC ACTIVITY, AND PREPARATION METHOD AND APPLICATION THEREOF” (priority 2023, published 2026)
Read-outs that look alike come from different tables or passages of the source.

Legend:
[1] = test system: Kunming mice; test: Analgesic activity by acetic acid-induced writhing method (writhing inhibition rate, ED50); assay type: in vivo; conditions: Mus musculus, sc, read-out: Analgesia rate (%) ± SEM
Method: (§1) The experimental animals were Kunming mice (male:female=1:1), weighed 22+2 g, which were provided by Chengdu dossy experimental animals Co., ltd., China. The mice were kept in the animal room of the School of Life Science and Engineering, Southwest Jiaotong University, where the animal room was set at a temperature of 23±2° C., a humidity of […] and a photoperiod of 16:8 h (L:D). Before the experiment, the mice were freely fed for 2-3 days with water and feed to adapt to the new environment. Then, the mice were treated by water and food fasting for 12 h. 10 animals were allocated to each group to ensure that there are at least 6 sets of valid data in each group. The animal experiments were carried out in strict accordance with the national regulations on the management of experimental animals.
(§2) The compounds prepared in the examples provided herein (test sample set) and bulleyaconitine A (positive control set) were all dissolved with 0.1 mol/L HCl according to a molar ratio of 1:1, and then diluted with physiological saline to a concentration to be determined. Blank control was physiological saline containing 0.1 mol/L HCl. The animals in the control groups were subjected to the same treatment as those in experimental groups except that samples to be test were replaced with physiological saline.
(1) Determination of Analgesic Activity Through an Acetic Acid-Induced Writhing Method
10 mice were randomly selected, male:female=1:1, were placed in independent cages. Each mouse was injected subcutaneously with the sample solution mentioned above at a dose of 0.1 mL/10 g body weight. After 15 min, a 0.7% acetic acid solution was intraperitoneally injected. A number of writhing reactions in each mouse within 15 minutes was recorded. The group that the mice were injected with physiological saline subcutaneously was the blank group; the group that the mice were injected with the sample to be tested was the experimental group; and the group that the mice were injected with bulleyaconitine A was the positive group. The analgesic activity was represented by a percentage of the reduced number of writhing compared to the blank group (writhing inhibition rate), which were specifically as follows: writhing inhibition rate (analgesic activity)=(average number of writhing times in the blank group-average number of writhing times in the experimental group)/average number of writhing times in the blank group×100%.
Median Effective Dose (ED50) Determination
The sample to be tested was dissolved with 0.1 mol/L HCl according to the amount of the substance ratio of 1:1, and diluted with physiological saline according to the proportional series to obtain at least 5 groups with different dose concentrations. The writhing inhibition rate of each dose group was tested according to the acetic acid-induced writhing method mentioned above. The obtained dose-writhing inhibition data was entered into the statistical product and service solutions (SPSS) software (version 17.2), and the ED50 of the sample to be tested was calculated through the Probit regression method.

[2] = test system: Kunming mice; test: Acute toxicity / median lethal dose (LD50) determination, subcutaneous injection; assay type: in vivo; parameters: key to Acute toxicity: if death occurred, (+) represented as positive; if no death occurred, (−) represented as negative; conditions: mice administered 20 mg/kg subcutaneously, presence of death within 24 h
Method: as §1, §2
(2) Median Lethal Dose (LD50) Determination
The sample to be tested was dissolved with 0.1 mol/L HCl according to the amount of the substance ratio of 1:1, and diluted with physiological saline according to the required concentration. 10 mice in each group were randomly selected, half of which were male and half of which were female, and were placed in independent cages. Each mouse was injected subcutaneously with different sample solutions to be tested according to a dose of 0.1 mL/10 g body weight. In the preliminary toxicity experiment, the measured concentration was 20 mg/kg, and then based on the survival rate of the experimental animals in the preliminary experiment, the sample to be tested was set to at least 5 groups with different concentration dose according to the proportional series. The survival rate of mice within 24 h was recorded. The obtained dose-survival rate data was input into the SPSS software (version 17.2), and the LD50 of the sample was calculated according to the Probit regression method.

Structure (SMILES) | inhibition in vivo at 0.05 mg/kg [1] [%] | Acute toxicity [2] | inhibition in vivo at 0.05 mg/kg ([1]; dosing concentration 0.05 mg/kg, subcutaneous, acetic acid-induced writhing, mice) [%]
CCO[C@]12C[C@H](OC)[C@@]3(OC(=O)c4ccccc4Br)CC(C1[C@H]3OC(=O)c1ccccc1Br)[C@]13C4[C@@H](OC)C2[C@H]1N(CC)C[C@]4(COC)CC[C@@H]3OC (some centres unmarked) [Compound 67] | 17.8 ± 1.9 | − | 
CCO[C@]12C[C@H](OC)[C@@]3(OC(=O)c4ccccc4Cl)CC(C1[C@H]3OC(=O)c1ccccc1Cl)[C@]13C4[C@@H](OC)C2[C@H]1N(CC)C[C@]4(COC)CC[C@@H]3OC (some centres unmarked) [Compound 68] | 24.6 ± 1.7 | − | 
CCO[C@]12C[C@H](OC)[C@@]3(OC(=O)c4cccc(Br)c4)CC(C1[C@H]3OC(=O)c1cccc(Br)c1)[C@]13C4[C@@H](OC)C2[C@H]1N(CC)C[C@]4(COC)CC[C@@H]3OC (some centres unmarked) [Compound 70] | 5.83 ± 1.7 | − | 
CCO[C@]12C[C@H](OC)[C@@]3(OC(=O)c4cccc(Cl)c4)CC(C1[C@H]3OC(=O)c1cccc(Cl)c1)[C@]13C4[C@@H](OC)C2[C@H]1N(CC)C[C@]4(COC)CC[C@@H]3OC (some centres unmarked) [Compound 71] | 4.11 ± 2 | − | 
CCO[C@]12C[C@H](OC)[C@@]3(OC(=O)c4cccc(F)c4)CC(C1[C@H]3OC(=O)c1cccc(F)c1)[C@]13C4[C@@H](OC)C2[C@H]1N(CC)C[C@]4(COC)CC[C@@H]3OC (some centres unmarked) [Compound 72] | 24.7 ± 2 | − | 
CCO[C@]12C[C@H](OC)[C@@]3(OC(=O)c4ccc(Cl)cc4Cl)CC(C1[C@H]3OC(=O)c1ccc(Cl)cc1Cl)[C@]13C4[C@@H](OC)C2[C@H]1N(CC)C[C@]4(COC)CC[C@@H]3OC (some centres unmarked) [Compound 73] | 33.5 ± 2.7 | − | 
CCO[C@]12C[C@H](OC)[C@@]3(OC(=O)c4cc(F)cc(F)c4)CC(C1[C@H]3OC(=O)c1cc(F)cc(F)c1)[C@]13C4[C@@H](OC)C2[C@H]1N(CC)C[C@]4(COC)CC[C@@H]3OC (some centres unmarked) [Compound 74] | 23.9 ± 2.8 | − | 
CCO[C@]12C[C@H](OC)[C@@]3(OC(=O)c4ccccc4C)CC(C1[C@H]3OC(=O)c1ccccc1C)[C@]13C4[C@@H](OC)C2[C@H]1N(CC)C[C@]4(COC)CC[C@@H]3OC (some centres unmarked) [Compound 75] | 10.8 ± 2.2 | − | 
CCO[C@]12C[C@H](OC)[C@@]3(OC(=O)c4cccc(OC)c4)CC(C1[C@H]3OC(=O)c1cccc(OC)c1)[C@]13C4[C@@H](OC)C2[C@H]1N(CC)C[C@]4(COC)CC[C@@H]3OC (some centres unmarked) [Compound 76] | 0 | − | 
CCCC(=O)O[C@@H]1C2C3C[C@]1(OC(=O)CCC)[C@@H](OC)C[C@]2(OCC)C1[C@H](OC)C2[C@@]4(COC)CC[C@H](OC)[C@@]32[C@@H]1N(CC)C4 (some centres unmarked) [Compound 77] | 34.2 ± 1.8 | − | 
CCCC(=O)O[C@]12CC3C([C@H]1OC(=O)c1ccc(OC)cc1)[C@](OCC)(C[C@@H]2OC)C1[C@H](OC)C2[C@@]4(COC)CC[C@H](OC)[C@@]32[C@@H]1N(CC)C4 (some centres unmarked) [Compound 78] | 31.7 ± 1.4 | − | 
CCO[C@]12C[C@H](OC)[C@@]3(OC(=O)C(C)C)CC(C1[C@H]3OC(=O)C(C)C)[C@]13C4[C@@H](OC)C2[C@H]1N(CC)C[C@]4(COC)CC[C@@H]3OC (some centres unmarked) [Compound 80] | 19.1 ± 2.1 | − | 
CCO[C@]12C[C@H](OC)[C@@]3(OC(=O)C(C)C)CC(C1[C@H]3OC(=O)c1ccc(OC)cc1)[C@]13C4[C@@H](OC)C2[C@H]1N(CC)C[C@]4(COC)CC[C@@H]3OC (some centres unmarked) [Compound 81] | 28.8 ± 1.2 | − | 
CCN1C[C@]2(COC)CC[C@H](OC)[C@@]34C5C[C@]6(OC(=O)C(C)C)[C@@H](OC)C[C@@](OC(C)=O)(C5[C@H]6OC(=O)c5ccc(OC)cc5)C([C@H](OC)C23)[C@@H]14 (some centres unmarked) [Compound 82] | 33.3 ± 1.5 | − | 
CCN1C[C@]2(COC)CC[C@H](OC)[C@@]34C5C[C@]6(OC(=O)c7ccc(Cl)cc7)[C@@H](OC)C[C@@](OC(C)=O)(C5[C@H]6OC(=O)c5ccc(OC)cc5)C([C@H](OC)C23)[C@@H]14 (some centres unmarked) [Compound 84] | 27 ± 1.4 | − | 
C/C=C/C(=O)O[C@@H]1C2C3C[C@]1(OC(=O)/C=C/C)[C@@H](OC)C[C@]2(OCC)C1[C@H](OC)C2[C@@]4(COC)CC[C@H](OC)[C@@]32[C@@H]1N(CC)C4 (some centres unmarked) [Compound 85] | 22.4 ± 3.3 | − | 
C/C=C/C(=O)O[C@]12CC3C([C@H]1OC(=O)c1ccc(OC)cc1)[C@](OCC)(C[C@@H]2OC)C1[C@H](OC)C2[C@@]4(COC)CC[C@H](OC)[C@@]32[C@@H]1N(CC)C4 (some centres unmarked) [Compound 86] | 22.8 ± 1.8 | − | 
C/C=C/C(=O)O[C@]12CC3C([C@H]1OC(=O)c1ccc(OC)cc1)[C@](OC(C)=O)(C[C@@H]2OC)C1[C@H](OC)C2[C@@]4(COC)CC[C@H](OC)[C@@]32[C@@H]1N(CC)C4 (some centres unmarked) [Compound 87] | 17.3 ± 3.1 | − | 
CCO[C@]12C[C@H](OC)[C@@]3(OC(=O)CC(C)(C)C)CC(C1[C@H]3OC(=O)c1ccc(OC)cc1)[C@@]13C4[C@@H]2[C@H](OC)C1[C@@](COC)(CC[C@@H]3OC)CN4CC (some centres unmarked) [Compound 89] |  | − | 33.7 ± 2.4
CCO[C@]12C[C@H](OC)[C@@]3(OC(=O)c4ccc(Br)cc4)CC(C1[C@H]3OC(=O)c1ccc(OC)cc1)[C@]13C4[C@@H](OC)C2[C@H]1N(CC)C[C@]4(COC)CC[C@@H]3OC (some centres unmarked) [Compound 91] | 31.4 ± 1.5 | − | 
CCN1C[C@]2(COC)CC[C@H](OC)[C@@]34C5C[C@]6(OC(=O)c7ccc(Br)cc7)[C@@H](OC)C[C@@](OC(C)=O)(C5[C@H]6OC(=O)c5ccc(OC)cc5)C([C@H](OC)C23)[C@@H]14 (some centres unmarked) [Compound 92] | 4.12 ± 1.7 | − | 
CCO[C@]12C[C@H](OC)[C@@]3(OC(=O)Cc4cccs4)CC(C1[C@H]3OC(=O)Cc1cccs1)[C@]13C4[C@@H](OC)C2[C@H]1N(CC)C[C@]4(COC)CC[C@@H]3OC (some centres unmarked) [Compound 93] | 10.5 ± 2.3 | − | 
CCO[C@]12C[C@H](OC)[C@@]3(OC(=O)c4ccc(OC(F)(F)F)cc4)CC(C1[C@H]3OC(=O)c1ccc(OC(F)(F)F)cc1)[C@]13C4[C@@H](OC)C2[C@H]1N(CC)C[C@]4(COC)CC[C@@H]3OC (some centres unmarked) [Compound 94] | 0 | − | 
CCO[C@]12C[C@H](OC)[C@@]3(OC(=O)c4cccc(C#N)c4)CC(C1[C@H]3OC(=O)c1cccc(C#N)c1)[C@]13C4[C@@H](OC)C2[C@H]1N(CC)C[C@]4(COC)CC[C@@H]3OC (some centres unmarked) [Compound 95] | 23.8 ± 1.1 | − | 
CCO[C@]12C[C@H](OC)[C@@]3(OC(=O)c4cc([N+](=O)[O-])cc([N+](=O)[O-])c4)CC(C1[C@H]3OC(=O)c1cc([N+](=O)[O-])cc([N+](=O)[O-])c1)[C@]13C4[C@@H](OC)C2[C@H]1N(CC)C[C@]4(COC)CC[C@@H]3OC (some centres unmarked) [Compound 96] | 30.1 ± 1.3 | − | 
